Experimental findings from paper PMC7253723, “Chain-End Modifications and Sequence Arrangements of Antimicrobial Peptoids for Mediating Activity and Nano-Assembly” (Frontiers in Chemistry, 2020) are described below.

Where two headings read alike, the source gives them in different places. Square brackets hold non-standard residues; d marks the D form. Peptide text beside a SMILES is read from it. * marks the point of attachment. N(1-naphthylmethyl)Gly = O=C(O)CNCc1cccc2ccccc12; N(4-MeBn)Gly = Cc1ccc(CNCC(=O)O)cc1; Palmitoyl = CCCCCCCCCCCCCCCC(=O)*; Nspe = C[C@H](NCC(=O)O)c1ccccc1; Nonanoyl = CCCCCCCCC(=O)*; AEEA = NCCOCCOCC(=O)O; NBuGly = CCCCNCC(=O)O; Nlys = NCCCCNCC(=O)O

A short description of data set [1]: Critical aggregation concentration (CAC) Nile red fluorescence assay. The data set is classed as physicochemical. Conditions: Nile red fluorescence (~10 nM NR in water), lipopeptoids 2.5 × 10^-2 to 1 wt.%, excitation 552 nm, peak around 610 nm, room temperature; inflection in emission intensity. How it is done: Nile red (NR) fluorescence was used to measure critical aggregation concentration (CAC) for the synthesized lipopeptoids. Lipopeptoids were dissolved at 2.5 × 10^−2 to 1 wt.% in a dilute solution of Nile red (0.25 μg/100 mL, i.e. ~10 nM concentration) prepared in water. NR was excited at 552 nm and emission was recorded at room temperature in the range 550–750 nm using a 10.0 × 5.0 mm^2 quartz cell (Jasco spectrofluorimeter FP-6500). The intensity of the peak centered around 610 nm is shown in the data presented in Section results and discussion.
We first examined with a CAC assay whether coupling a hydrophobic tail to AMPMs and inserting the kk and EG2 components is a viable design for generating self-assembling lipopeptoids. The CAC measures the concentration above which hydrophobic pockets (e.g., lipophilic cores of micelles) are formed, and lower CACs indicate higher propensities of self-assembly. In our experiments, the CAC is indicated by an inflection in the increase in emission intensity of a lipophilic fluorophore tracer (Nile Red) that emits more strongly when partitioned into hydrophobic lower dielectric environments (see Figure S6 for an example analysis).

Data set [2] deals with Escherichia coli (ATCC 25922). The format is cell-based. The protocol:
(§1) Technical triplicates (n = 3) or more of samples at each concentration were analyzed.

Data set [3] concerns Pseudomonas aeruginosa (PA01). The format is cell-based. The protocol:
as §1

For data set [4], the system named is Staphylococcus aureus (NCTC 4135). The data set is classed as cell-based. The protocol:
as §1

Setting [5] is: MH broth microdilution (CLSI M07-A10), ~5 × 10^5 CFU/mL, overnight 37°C, OD 600 nm, MIC = concentration with OD halfway between minimum and maximum, sigmoidal fit ± SD, n = 3 or more, maximum tested 100 μM.
The mark [6] stands for this setting: PA01, MH broth microdilution (CLSI M07-A10), ~5 × 10^5 CFU/mL, overnight 37°C, OD 600 nm, MIC = concentration with OD halfway between minimum and maximum, sigmoidal fit ± SD, n = 3 or more, maximum tested 100 μM.

For `CCCCCCCCC(=O)NCCOCCOCC(=O)N(CCCCN)CC(=O)N(CC(=O)N(CC(=O)N(CCCCN)CC(=O)N(CC(=O)N(CC(=O)N(CCCCN)CC(=O)N(CCCCN)CC(N)=O)[C@@H](C)c1ccccc1)[C@@H](C)c1ccccc1)[C@@H](C)c1ccccc1)[C@@H](C)c1ccccc1` [C8-EG2-(kss)2-kk] ({Nonanoyl-AEEA}-[Nlys][Nspe][Nspe][Nlys][Nspe][Nspe][Nlys][Nlys]-NH2), the CAC in data set [1] turned out to be 200 ± 37 µM. For the same molecule, in data set [2] (setting [5]), the “Antimicrobial activity (MIC) E. coli” value was 18 ± 3 µM. Moreover, the “Antimicrobial activity (MIC) P. aeruginosa” value in data set [3] (setting [6]) stood at 13 ± 3 µM. In addition, the “Antimicrobial activity (MIC) S. aureus” value in data set [4] (setting [5]) is 9 ± 1 µM.

`CCCCCCCCCCCCCCCC(=O)NCCOCCOCC(=O)N(CC(=O)N(CC(=O)N(CC(=O)N(CCCC)CC(=O)N(CCCCN)CC(=O)N(CCCCN)CC(=O)N(CCCCN)CC(=O)N(CCCCN)CC(N)=O)Cc1cccc2ccccc12)Cc1ccc(C)cc1)Cc1cccc2ccccc12` [C15-EG2-4k] ({Palmitoyl-AEEA}-[N(1-naphthylmethyl)Gly][N(4-MeBn)Gly][N(1-naphthylmethyl)Gly][NBuGly][Nlys][Nlys][Nlys][Nlys]-NH2) yielded a CAC in data set [1] of 320 ± 24 µM.

In data set [1], `CCCCCCCCC(=O)NCCOCCOCC(=O)N(CC(=O)N(CC(=O)N(CC(=O)N(CCCC)CC(=O)N(CCCCN)CC(=O)N(CCCCN)CC(=O)N(CCCCN)CC(=O)N(CCCCN)CC(N)=O)Cc1cccc2ccccc12)Cc1ccc(C)cc1)Cc1cccc2ccccc12` [C8-EG2-4k] ({Nonanoyl-AEEA}-[N(1-naphthylmethyl)Gly][N(4-MeBn)Gly][N(1-naphthylmethyl)Gly][NBuGly][Nlys][Nlys][Nlys][Nlys]-NH2) had a CAC of 2500 ± 350 µM. In addition, the “Antimicrobial activity (MIC) E. coli” value in data set [2] (setting [5]) came out at 17 ± 1 µM. Moreover, the “Antimicrobial activity (MIC) P. aeruginosa” value in data set [3] (setting [6]) came to 16 ± 2 µM. For the same molecule, the “Antimicrobial activity (MIC) S. aureus” value in data set [4] (setting [5]) stood at 18 ± 3 µM.

In the case of `C[C@@H](c1ccccc1)N(CC(N)=O)C(=O)CN(C(=O)CN(CCCCN)C(=O)CN(C(=O)CN(C(=O)CN(CCCCN)C(=O)CN(C(=O)CN(C(=O)CN(CCCCN)C(=O)CN(C(=O)CN(C(=O)CNCCCCN)[C@@H](C)c1ccccc1)[C@@H](C)c1ccccc1)[C@@H](C)c1ccccc1)[C@@H](C)c1ccccc1)[C@@H](C)c1ccccc1)[C@@H](C)c1ccccc1)[C@@H](C)c1ccccc1` [(kss)4, reference compound] (H-[Nlys][Nspe][Nspe][Nlys][Nspe][Nspe][Nlys][Nspe][Nspe][Nlys][Nspe][Nspe]-NH2), the “Antimicrobial activity (MIC) E. coli” value in data set [2] (setting [5]) was 6 ± 0.4 µM. Further, the “Antimicrobial activity (MIC) P. aeruginosa” value in data set [3] (setting [6]) was found to be 16 ± 0.3 µM. Also, in data set [4] (setting [5]), the “Antimicrobial activity (MIC) S. aureus” value was 4 ± 0.3 µM.

`CCCCCCCCC(=O)NCCOCCOCC(=O)N(CCCCN)CC(=O)N(CC(=O)N(CC(=O)N(CCCCN)CC(=O)N(CC(=O)N(CC(=O)N(CCCCN)CC(=O)N(CC(=O)N(CC(=O)N(CCCCN)CC(=O)N(CCCCN)CC(N)=O)[C@@H](C)c1ccccc1)[C@@H](C)c1ccccc1)[C@@H](C)c1ccccc1)[C@@H](C)c1ccccc1)[C@@H](C)c1ccccc1)[C@@H](C)c1ccccc1` [C8-EG2-(kss)3-kk] ({Nonanoyl-AEEA}-[Nlys][Nspe][Nspe][Nlys][Nspe][Nspe][Nlys][Nspe][Nspe][Nlys][Nlys]-NH2): the CAC in data set [1] came out at 270 ± 30 µM. In addition, in data set [2] (setting [5]), the “Antimicrobial activity (MIC) E. coli” value is 2 ± 0.3 µM. The “Antimicrobial activity (MIC) P. aeruginosa” value in data set [3] (setting [6]) turned out to be 6 ± 2 µM. For the same molecule, in data set [4] (setting [5]), the “Antimicrobial activity (MIC) S. aureus” value was found to be 3 ± 1 µM.

`C[C@@H](c1ccccc1)N(CC(N)=O)C(=O)CN(C(=O)CN(CCCCN)C(=O)CN(C(=O)CN(C(=O)CNCCCCN)[C@@H](C)c1ccccc1)[C@@H](C)c1ccccc1)[C@@H](C)c1ccccc1` [(kss)2, reference compound] (H-[Nlys][Nspe][Nspe][Nlys][Nspe][Nspe]-NH2): in data set [2] (setting [5]), the “Antimicrobial activity (MIC) E. coli” value is more than 100 µM. The “Antimicrobial activity (MIC) P. aeruginosa” value in data set [3] (setting [6]) came out at 44 ± 2 µM. For the same molecule, the “Antimicrobial activity (MIC) S. aureus” value in data set [4] (setting [5]) is 41 ± 2 µM.

With `CCCCN(CC(=O)N(CCCCN)CC(N)=O)C(=O)CN(CCCCN)C(=O)CN(Cc1cccc2ccccc12)C(=O)CN(CCCCN)C(=O)CN(Cc1ccc(C)cc1)C(=O)CN(CCCCN)C(=O)CNCc1cccc2ccccc12` [Kykbk, reference compound] (H-[N(1-naphthylmethyl)Gly][Nlys][N(4-MeBn)Gly][Nlys][N(1-naphthylmethyl)Gly][Nlys][NBuGly][Nlys]-NH2), the “Antimicrobial activity (MIC) E. coli” value in data set [2] worked out at 15 ± 1 µM. Also, the “Antimicrobial activity (MIC) P. aeruginosa” value in data set [3] worked out at 20 ± 1 µM. Further, the “Antimicrobial activity (MIC) S. aureus” value in data set [4] worked out at 9 ± 0.4 µM.

Turning to `CCCCCCCCC(=O)NCCOCCOCC(=O)N(CC(=O)N(CC(=O)N(CC(=O)N(CCCC)CC(=O)N(CCCCN)CC(=O)N(CCCCN)CC(=O)N(CCCCN)CC(=O)N(CCCCN)CC(=O)N(CCCCN)CC(N)=O)Cc1cccc2ccccc12)Cc1ccc(C)cc1)Cc1cccc2ccccc12` [C8-EG2-5k] ({Nonanoyl-AEEA}-[N(1-naphthylmethyl)Gly][N(4-MeBn)Gly][N(1-naphthylmethyl)Gly][NBuGly][Nlys][Nlys][Nlys][Nlys][Nlys]-NH2), the CAC in data set [1] turned out to be 1600 ± 390 µM. The “Antimicrobial activity (MIC) E. coli” value in data set [2] was found to be 74 ± 4 µM. Also, in data set [3], the “Antimicrobial activity (MIC) P. aeruginosa” value worked out at 41 ± 2 µM. Also, in data set [4], the “Antimicrobial activity (MIC) S. aureus” value was determined as 8 ± 0.3 µM.

Consider `CCCCN(CC(=O)N(CCCCN)CC(=O)N(CCCCN)CC(=O)N(CCCCN)CC(=O)N(CCCCN)CC(N)=O)C(=O)CN(Cc1cccc2ccccc12)C(=O)CN(Cc1ccc(C)cc1)C(=O)CNCc1cccc2ccccc12` [4k, reference compound] (H-[N(1-naphthylmethyl)Gly][N(4-MeBn)Gly][N(1-naphthylmethyl)Gly][NBuGly][Nlys][Nlys][Nlys][Nlys]-NH2), for which the “Antimicrobial activity (MIC) E. coli” value in data set [2] turned out to be 7 ± 0.3 µM. Also, the “Antimicrobial activity (MIC) P. aeruginosa” value in data set [3] amounted to 19 ± 0.4 µM. Moreover, the “Antimicrobial activity (MIC) S. aureus” value in data set [4] amounted to 7 ± 0.1 µM.

In data set [1], `CCCCCCCCCCCCCCCC(=O)NCCOCCOCC(=O)N(CC(=O)N(CCCCN)CC(=O)N(CC(=O)N(CCCCN)CC(=O)N(CC(=O)N(CCCCN)CC(=O)N(CCCC)CC(=O)N(CCCCN)CC(N)=O)Cc1cccc2ccccc12)Cc1ccc(C)cc1)Cc1cccc2ccccc12` [C15-EG2-kykbk] ({Palmitoyl-AEEA}-[N(1-naphthylmethyl)Gly][Nlys][N(4-MeBn)Gly][Nlys][N(1-naphthylmethyl)Gly][Nlys][NBuGly][Nlys]-NH2) showed a CAC of 410 ± 32 µM.

With `CCCCCCCCCCCCCCCC(=O)NCCOCCOCC(=O)N(CC(=O)N(CC(=O)N(CC(=O)N(CCCC)CC(=O)N(CCCCN)CC(=O)N(CCCCN)CC(=O)N(CCCCN)CC(=O)N(CCCCN)CC(=O)N(CCCCN)CC(N)=O)Cc1cccc2ccccc12)Cc1ccc(C)cc1)Cc1cccc2ccccc12` [C15-EG2-5k] ({Palmitoyl-AEEA}-[N(1-naphthylmethyl)Gly][N(4-MeBn)Gly][N(1-naphthylmethyl)Gly][NBuGly][Nlys][Nlys][Nlys][Nlys][Nlys]-NH2), the CAC in data set [1] is 360 ± 25 µM.

Take `C[C@@H](c1ccccc1)N(CC(N)=O)C(=O)CN(C(=O)CN(CCCCN)C(=O)CN(C(=O)CN(C(=O)CN(CCCCN)C(=O)CN(C(=O)CN(C(=O)CNCCCCN)[C@@H](C)c1ccccc1)[C@@H](C)c1ccccc1)[C@@H](C)c1ccccc1)[C@@H](C)c1ccccc1)[C@@H](C)c1ccccc1` [(kss)3, reference compound] (H-[Nlys][Nspe][Nspe][Nlys][Nspe][Nspe][Nlys][Nspe][Nspe]-NH2): the “Antimicrobial activity (MIC) E. coli” value in data set [2] was determined as 4 ± 0.2 µM. The “Antimicrobial activity (MIC) P. aeruginosa” value in data set [3] came to 15 ± 1 µM. For the same molecule, the “Antimicrobial activity (MIC) S. aureus” value in data set [4] is 2 ± 0.2 µM.
